{
  "source": "paper PMC11278233",
  "about": "“The Composition of Triterpene Glycosides in the Sea Cucumber Psolus peronii: Anticancer Activity of the Glycosides against Three Human Breast Cancer Cell Lines and Quantitative Structure–Activity Relationships (QSAR)” (Marine Drugs, 2024)",
  "key": {"[1]": {"system": "human breast cancer cell line T-47D", "test": "cells", "format": "cell-based"}, "[2]": {"system": "human breast cancer cell line MCF-7", "test": "cells", "format": "cell-based"}, "in vitro": {"test": "in vitro", "format": "cell-based, human", "settings": "human"}, "[3]": {"system": "triple-negative human breast cancer cell line MDA-MB-231", "test": "cells", "format": "cell-based"}, "human erythrocytes": {"system": "human erythrocytes", "test": "Hemolytic activity", "format": "cell-based", "settings": "for IC50: Erythrocyte, 1 h at 37 °C, lysis of 50% of erythrocytes", "description": "A total of 450 g of human blood (B(III) Rh+) was used to obtain erythrocytes by centrifuging it three times for 5 min with phosphate-buffered saline (PBS) (pH 7.4) at 4 °C on the centrifuge LABOFUGE 400R (Heraeus, Hanau, Germany). Ice-cold PBS (pH 7.4) was used for resuspension of the erythrocyte residue to a final optical density of 1.5 at 700 nm, which was kept on ice. Then, 20 µL of the tested compound solutions was added to 180 µL of the erythrocyte suspension in V-bottom 96-well plates and exposed for 1 h at 37 °C. The layers were separated by centrifugation at 900 g for 10 min on the laboratory centrifuge LMC-3000 (Biosan, Riga, Latvia). A total of 100 µL of the supernatant was carefully decanted and transferred into a new flat plate. The values of erythrocyte lysis were measured on a microplate photometer Multiskan FC (Thermo Fisher Scientific, Waltham, MA, USA) at λ = 570 nm as the hemoglobin concentration in the supernatant. […] All the experiments were carried out in triple repetitions; p ≤ 0.05."}, "[4]": {"system": "non-transformed epithelial cells of the mammary gland MCF-10A", "test": "in vitro", "format": "cell-based, human"}, "[5]": {"settings": "Homo sapiens, T47D, 24 h, read-out: Cytotoxicity, IC50 µM T-47D"}, "[6]": {"settings": "Homo sapiens, MCF7, 24 h, read-out: Cytotoxicity, IC50 µM MCF-7"}, "[7]": {"settings": "Homo sapiens, MDA-MB-231, 24 h, read-out: Cytotoxicity, IC50 µM MDA-MD-231"}},
  "note": "Read-outs that look alike come from different tables or passages of the source.",
  "data": [
    {"smiles": "C=C(C)CCC[C@](C)(OC(C)=O)[C@H]1[C@@H]2C[C@@]3(C)C4=CC[C@H]5C(C)(C)[C@@H](O[C@@H]6OC[C@@H](O[C@@H]7O[C@H](CO)[C@@H](O)[C@H](O)[C@H]7OS(=O)(=O)[O-])[C@H](O)[C@H]6O[C@@H]6O[C@H](CO)[C@@H](O[C@@H]7O[C@H](COS(=O)(=O)[O-])[C@@H](O)[C@H](O)[C@H]7O)[C@H](O)[C@H]6O)CC[C@]5(C)C4CC[C@]13C(=O)O2.[Na+].[Na+]", "note": "(stereo partly drawn) [psolusoside B (3), psolusoside B]", "values": [
      {"measurement": "IC50", "setting": "[1]; [5]", "result": "> 50", "unit": "µM"},
      {"measurement": "IC50", "setting": "[2]; [6]", "result": "> 50", "unit": "µM"},
      {"measurement": "IC50 at 24 h", "setting": "in vitro", "result": "> 50", "unit": "µM"},
      {"measurement": "IC50", "setting": "[3]; [7]", "result": "> 50", "unit": "µM"},
      {"measurement": "hemolytic activity (result in words)", "setting": "human erythrocytes", "result": "almost not active"},
      {"measurement": "IC50", "setting": "human erythrocytes", "result": "74.6 ± 1.21", "unit": "µM"}
    ]},
    {"smiles": "C=C(C)CCC[C@]1(C)OC(=O)[C@]23CC=C4[C@@H](CC[C@H]5C(C)(C)[C@@H](O[C@@H]6OC[C@@H](O[C@@H]7O[C@H](COS(=O)(=O)O)[C@@H](O)[C@H](O)[C@H]7O)[C@H](O)[C@H]6O[C@@H]6O[C@H](CO)[C@@H](O[C@@H]7O[C@H](COS(=O)(=O)O)[C@@H](O)[C@H](O[C@@H]8O[C@H](COS(=O)(=O)O)[C@@H](O)[C@H](OC)[C@H]8O)[C@H]7O)[C@H](O)[C@H]6O)CC[C@]45C)[C@]2(C)CC(=O)[C@@H]31", "note": "[psolusoside N (7), psolusoside N]", "values": [
      {"measurement": "IC50", "setting": "[1]", "result": "> 50", "unit": "µM"},
      {"measurement": "IC50", "setting": "[2]", "result": "> 50", "unit": "µM"},
      {"measurement": "IC50", "setting": "[4]", "result": "> 50", "unit": "µM"},
      {"measurement": "IC50", "setting": "[3]", "result": "39.3 ± 2.89", "unit": "µM"}
    ]},
    {"smiles": "C=C(C)CCC[C@]1(C)OC(=O)[C@]23CC=C4[C@@H](CC[C@H]5C(C)(C)[C@@H](O[C@@H]6OC[C@@H](O)[C@H](O)[C@H]6O[C@@H]6O[C@H](CO)[C@@H](O[C@@H]7O[C@H](COS(=O)(=O)O)[C@@H](O)[C@H](O[C@@H]8O[C@H](COS(=O)(=O)O)[C@@H](O)[C@H](OC)[C@H]8O)[C@H]7O)[C@H](O)[C@H]6O)CC[C@]45C)[C@]2(C)CC(=O)[C@@H]31", "note": "[psolusoside G (4), psolusoside G]", "values": [
      {"measurement": "IC50", "setting": "[1]; [5]", "result": "16 ± 1.17", "unit": "µM"},
      {"measurement": "IC50", "setting": "[2]; [6]", "result": "11.4 ± 0.36", "unit": "µM"},
      {"measurement": "IC50 at 24 h", "setting": "in vitro", "result": "> 50", "unit": "µM"},
      {"measurement": "IC50", "setting": "[3]; [7]", "result": "11 ± 0.36", "unit": "µM"},
      {"measurement": "IC50", "setting": "human erythrocytes", "result": "2.7 ± 0.09", "unit": "µM"}
    ]},
    {"smiles": "C=C(C)CCC[C@]1(C)OC(=O)[C@]23CCC4C(=CC[C@H]5C(C)(C)[C@@H](O[C@@H]6OC[C@@H](O[C@@H]7O[C@H](COS(=O)(=O)O)[C@@H](O)[C@H](O)[C@H]7O)[C@H](O)[C@H]6O[C@@H]6OC[C@@H](O[C@@H]7O[C@H](COS(=O)(=O)O)[C@@H](O)[C@H](O)[C@H]7O)[C@H](O)[C@H]6O)CC[C@]45C)[C@]2(C)C[C@H](OC(C)=O)[C@@H]31", "note": "(stereo partly drawn) [psolusoside I (5), psolusoside I]", "values": [
      {"measurement": "IC50", "setting": "[1]; [5]", "result": "19.6 ± 0.61", "unit": "µM"},
      {"measurement": "IC50", "setting": "[2]; [6]", "result": "> 50", "unit": "µM"},
      {"measurement": "IC50 at 24 h", "setting": "in vitro", "result": "> 50", "unit": "µM"},
      {"measurement": "IC50", "setting": "[3]; [7]", "result": "33.1 ± 0.85", "unit": "µM"},
      {"measurement": "IC50", "setting": "human erythrocytes", "result": "8.49 ± 0.49", "unit": "µM"}
    ]},
    {"smiles": "C=C(C)CCC[C@]1(C)OC(=O)[C@]23CC=C4[C@@H](CC[C@H]5C(C)(C)[C@@H](O[C@@H]6OC[C@@H](O[C@@H]7O[C@H](COS(=O)(=O)O)[C@@H](OS(=O)(=O)O)[C@H](O)[C@H]7O)[C@H](O)[C@H]6O[C@@H]6O[C@H](C)[C@@H](O[C@@H]7O[C@H](COS(=O)(=O)O)[C@@H](O)[C@H](O[C@@H]8O[C@H](COS(=O)(=O)O)[C@@H](O)[C@H](OC)[C@H]8O)[C@H]7O)[C@H](O)[C@H]6O)CC[C@]45C)[C@]2(C)CC(=O)[C@@H]31", "note": "[psolusoside P (8), psolusoside P]", "values": [
      {"measurement": "IC50", "setting": "[1]", "result": "37.1 ± 0.83", "unit": "µM"},
      {"measurement": "IC50", "setting": "[2]", "result": "> 50", "unit": "µM"},
      {"measurement": "IC50", "setting": "[4]", "result": "> 50", "unit": "µM"},
      {"measurement": "IC50", "setting": "[3]", "result": "33.3 ± 1.31", "unit": "µM"}
    ]},
    {"smiles": "C=C(C)CCC[C@]1(C)OC(=O)[C@]23CC[C@@H]4C(=CC[C@H]5C(C)(C)[C@@H](O[C@@H]6OC[C@@H](O[C@@H]7O[C@H](CO)[C@@H](O)[C@H](O)[C@H]7OS(=O)(=O)[O-])[C@H](O)[C@H]6O[C@@H]6O[C@H](CO)[C@@H](O[C@@H]7O[C@H](COS(=O)(=O)[O-])[C@@H](O)[C@H](O)[C@H]7O)[C@H](O)[C@H]6O)CC[C@]45C)[C@]2(C)CC(=O)[C@@H]31.[Na+].[Na+]", "note": "[peronioside A (1), 3β-O-{6-O-sodium-sulfate-β-D-glucopyranosyl-(1→4)-β-D-glucopyranosyl-(1→2)-[2-O-sodium-sulfate-β-D-glucopyranosyl-(1→4)]-β-D-xylopyranosyl}-16-oxoholosta-7,25-diene]", "values": [
      {"measurement": "IC50", "setting": "[1]; [5]", "result": "> 50", "unit": "µM"},
      {"measurement": "IC50", "setting": "[2]; [6]", "result": "> 50", "unit": "µM"},
      {"measurement": "IC50 at 24 h", "setting": "in vitro", "result": "> 50", "unit": "µM"},
      {"measurement": "IC50", "setting": "[3]; [7]", "result": "> 50", "unit": "µM"},
      {"measurement": "hemolytic activity (result in words)", "setting": "human erythrocytes", "result": "moderate hemolytic activity"},
      {"measurement": "IC50", "setting": "human erythrocytes", "result": "30.8 ± 1.01", "unit": "µM"}
    ]}
  ]
}
